From ChEMBL document CHEMBL3046740, “Lonazolac analogues: molecular modeling, synthesis, and in vivo anti-inflammatory activity” (2009)

How the values were obtained:
Type in all cases: functional
Mus musculus [1] = experiment: Analgesic activity in Mus musculus (mouse) assessed as paw withdrawal latency time at 50 mg/kg, ip after 30 min; details: route intraperitoneal
Rattus norvegicus [2] = experiment: Anti-inflammatory activity in Rattus norvegicus albino (rat) assessed as inhibition of carrageenan-induced paw edema at 50 mg/kg, po administered 30 min before carrageenan challenge measured after 24 hr
Rattus norvegicus [3] = experiment: Anti-inflammatory activity in Rattus norvegicus albino (rat) assessed as inhibition of carrageenan-induced paw edema at 50 mg/kg, po administered 30 min before carrageenan challenge measured after 4 hr
Rattus norvegicus [4] = experiment: Anti-inflammatory activity in Rattus norvegicus albino (rat) assessed as inhibition of carrageenan-induced paw edema at 50 mg/kg, po administered 30 min before carrageenan challenge measured after 3 hr
Rattus norvegicus [5] = experiment: Anti-inflammatory activity in Rattus norvegicus albino (rat) assessed as inhibition of carrageenan-induced paw edema at 50 mg/kg, po administered 30 min before carrageenan challenge measured after 1 hr
Rattus norvegicus [6] = experiment: Anti-inflammatory activity in Rattus norvegicus albino (rat) assessed as inhibition of carrageenan-induced paw edema at 50 mg/kg, po administered 30 min before carrageenan challenge measured after 2 hr
Rattus norvegicus [7] = experiment: Anti-inflammatory activity in Rattus norvegicus albino (rat) assessed as inhibition of carrageenan-induced paw edema at 10 mg/kg, po administered 30 min before carrageenan challenge measured after 24 hr
Rattus norvegicus [8] = experiment: Anti-inflammatory activity in Rattus norvegicus albino (rat) assessed as inhibition of carrageenan-induced paw edema at 10 mg/kg, po administered 30 min before carrageenan challenge measured after 4 hr
Rattus norvegicus [9] = experiment: Anti-inflammatory activity in Rattus norvegicus albino (rat) assessed as inhibition of carrageenan-induced paw edema at 10 mg/kg, po administered 30 min before carrageenan challenge measured after 3 hr
Rattus norvegicus [10] = experiment: Anti-inflammatory activity in Rattus norvegicus albino (rat) assessed as inhibition of carrageenan-induced paw edema at 10 mg/kg, po administered 30 min before carrageenan challenge measured after 2 hr
Rattus norvegicus [11] = experiment: Anti-inflammatory activity in Rattus norvegicus albino (rat) assessed as inhibition of carrageenan-induced paw edema at 10 mg/kg, po administered 30 min before carrageenan challenge measured after 1 hr
Mus musculus [12] = experiment: Analgesic activity in Mus musculus (mouse) assessed as paw withdrawal latency time at 10 mg/kg, ip after 30 min; details: route intraperitoneal

| Structure (SMILES) | Time (Mus musculus [1]) | inhibition in vivo at 50 mg/kg (Rattus norvegicus [2]) | inhibition in vivo at 50 mg/kg (Rattus norvegicus [3]) | inhibition in vivo at 50 mg/kg (Rattus norvegicus [4]) | inhibition in vivo at 50 mg/kg (Rattus norvegicus [5]) | inhibition in vivo at 50 mg/kg (Rattus norvegicus [6]) | inhibition in vivo at 10 mg/kg (Rattus norvegicus [7]) | inhibition in vivo at 10 mg/kg (Rattus norvegicus [8]) | inhibition in vivo at 10 mg/kg (Rattus norvegicus [9]) | inhibition in vivo at 10 mg/kg (Rattus norvegicus [10]) | inhibition in vivo at 10 mg/kg (Rattus norvegicus [11]) | Time (Mus musculus [12]) |
| --- | --- | --- | --- | --- | --- | --- | --- | --- | --- | --- | --- | --- |
| O=C(O)CCC(=O)/C=C/c1cn(-c2ccccc2)nc1-c1ccc(Cl)cc1 | 4.09 s | 2.27% | 8.64% | 6.32% | 3.43% | 10.9% | – | – | – | – | – | – |
| Cc1ccc(-c2nn(-c3ccccc3)cc2/C=C/C(=O)CCC(=O)O)cc1 | 6.47 s | 3.79% | 13% | 11.5% | 4.41% | 6.25% | – | – | – | – | – | – |
| NC(=O)c1ccccc1NC(=O)c1cn(-c2ccccc2)nc1-c1ccccc1 | 6.29 s | -3.79% | 9.88% | 14.4% | 17.6% | 13.5% | – | – | – | – | – | – |
| NC(=O)c1ccccc1NC(=O)c1cn(-c2ccccc2)nc1-c1ccc(Cl)cc1 | 4.89 s | 15.2% | 9.26% | 3.45% | 1.96% | 9.38% | – | – | – | – | – | – |
| NC(=O)c1ccccc1OC(=O)c1cn(-c2ccccc2)nc1-c1ccc(Br)cc1 | 7.4 s | 3.09% | 6.14% | 8.6% | 26% | 10.4% | – | – | – | – | – | – |
| CC(=O)Nc1ccc(OC(=O)c2cn(-c3ccccc3)nc2-c2ccc(Cl)cc2)cc1 | 18.83 s | 3.79% | 16.1% | 16.7% | 17.8% | 15.6% | – | – | – | – | – | – |
| CC(=O)Nc1ccc(OC(=O)c2cn(-c3ccccc3)nc2-c2ccc(C)cc2)cc1 | 8.32 s | 9.09% | 3.7% | 6.32% | 2.94% | 4.17% | – | – | – | – | – | – |
| O=C(O)CCC(=O)/C=C/c1cn(-c2ccccc2)nc1-c1ccccc1 | 18.51 s | 8.33% | 23.5% | 15.5% | 27.9% | 13.5% | – | – | – | – | – | – |
| COc1ccc2c(c1)c(CC(=O)O)c(C)n2C(=O)c1ccc(Cl)cc1 [INDOMETHACIN] | – | – | – | – | – | – | 12.9% | 24.7% | 21.8% | 19.3% | 30.9% | 10.5 s |
